Results as given in US20160367515A1, “Improved delivery of poorly water soluble drugs with aphafetoprotein stabilized with metal ions” (Oy Safemed Ltd., priority 2013, published 2016).

What was measured:
[1] = system: human hepatoma HepG2 cells; assay: MTS cell viability assay, hepatoma HepG2 cells; format: cell-based; details: HepG2, 48 h
Procedure: (§1) Tumor cell lines: human mammary carcinoma MCF-7, human hepatoma HepG2, and rat glioma C6—were originated from the American Type Culture Collection (ATCC). All cell lines were maintained in the complete DMEM or RPMI-1640 media supplemented with L-glutamine and 10% fetal calf serum (FCS) in humidified 5% CO2 atmosphere. For a passage, adherent cells were incubated in the EDTA/0.25% trypsin solution, then washed and plated out for experiments. Prior to addition of reagents, cells were washed with the fresh media with 2% FCS, plated onto 96-well polystyrene plates (Costar, USA) at a density of 3×10^3 cell/well in 180 μL of complete medium with 2% FCS and incubated for 2 h. […] Cell proliferation was assessed by [^3H]-thymidine (^3H-TdR) incorporation assay. […] Cells were harvested and the ^3H-TdR incorporation was measured by using the liquid scintillation counter LKB 1209 Rackbeta (LKB, Sweden). Results were expressed as mean counts per minute (cpm)±standard error of the mean of triplicate cultures or as a percentage of ^3H-TdR incorporation in the experimental cell cultures relatively to the untreated control, as described (Semenkova et al., Tumour Biol. 1997; 18: 261-74).
(§2) Cell viability was assessed by the Promega CellTiter 96 AQueous Non-Radioactive Cell Proliferation MTS assay (Promega, USA) according to manufacturer's instructions. […]

[2] = system: rat glioma C6; assay: MTS cell viability assay, rat glioma C6 cells; format: cell-based; details: C6, 48 h, compositions of paclitaxel with rhAFP or Zn-rhAFP
Procedure: as §1, §2

[3] = system: NF-κB p65; assay: Immunofluorescence of activated NF-κB p65 nuclear translocation in MCF-7 cells; format: cell-based, human; details: MCF-7, 2 h treatment
Procedure: The cells were incubated with paclitaxel (10 μM) with addition of Zn-rhAFP (3.0 μM) and/or curcumin (3.0 μM) for 2 h and then assessed for localization of p65 by immunocytochemistry. Activated […] (p65) was detected by treatment of the cells with phospho […] p65 rabbit polyclonal antibody (Cell signaling technologies, USA) followed by secondary goat anti-rabbit Ab-Alexa594 red (Molecular Probes, USA). Cells were visualized at magnification ×400 by fluorescent microscope Axioplan; Zeiss (Germany) equipped with corresponding color filter kits.
The relative amount of p65 in the cytosol and nucleus of the cells was assessed by ImageJ software and was taken as 100% in the control (cytosol+nucleus). Total amount of activated p65 in control untreated cells was taken as 100%. The experimental data are represented as percentage of control±SD from three independent calculations in various observation fields.
MCF-7 cells were seeded on the microscopic plates Lab-Tek™ Chamber Slides (Thermo Fisher Scientific-Nunc, Germany) and cultivated at 37° C. at 5% CO2 atmosphere for 48 h to allow cell adaptation to reach 80% confluence. To test effects of chemotherapeutic preparations on the activation and translocation of NF-κB, cells were treated for 2 h with Ptx (10 nM), curcumin (30 μM); Zn-rhAFP (1.4 μM), or their combination Zn-rhAFP/Ptx/Cur, after which they were fixed with 100% ice-cold acetone. Control cells were incubated without additions and their NF-κB content was taken as 100%. Activated NF-κB was detected by treatment of the cells with phospho NF-κB p65 rabbit polyclonal antibody (Cell signaling technologies, USA) followed by the secondary goat anti-rabbit antibodies Ab-Alexa594 (Molecular Probes, USA). Nuclei were visualized by staining with DAPI (Molecular probes, USA). Cells were visualized at magnification ×400 by fluorescent microscope Axioplan (Zeiss, Germany) equipped with corresponding color filter kits. Distribution throughout the cell of the activated p65 was assessed by the ImageJ software and was taken as 100% in the control samples (cytosol+nucleus).

[4] = system: normal CBA mice splenocytes; assay: Unspecific toxicity against normal splenocytes, trypan blue staining; details: 48 h, standalone
Procedure: Zn-rhAFP was prepared in a molecular ratio Zn:rhAFP=4:1. Viable cells were visualized by trypan blue staining. The data are expressed as percentage of viable cells in experimental cell cultures relative to untreated control. Mean of three independent experiments is shown.
Viable cells were visualized by trypan blue staining.

## CC(=O)O[C@H]1C(=O)[C@@]2(C)[C@H]([C@H](OC(=O)c3ccccc3)[C@]3(O)C[C@H](OC(=O)[C@H](O)[C@@H](NC(=O)c4ccccc4)c4ccccc4)C(C)=C1C3(C)C)[C@]1(OC(C)=O)CO[C@@H]1C[C@@H]2O [Ptx, paclitaxel]
[1]
  sensitivity of HepG2 cells (chemoresistance): complete resistance
[2]
  IC50: 2500 nM
[3]
  effect on activated p65 (RelA) in the cell nucleus: significant enhance of activated p65 localized in the nuclear region
[4]
  cytotoxic effect against normal splenocytes: strong dose-dependent growth suppression
